Assay results reported in patent US8003785B2 (Takeda Pharmaceutical Company Limited, priority 2008, dated 2011).

Target: T1, PLK1 (Homo sapiens, UniProt P53350)
T1 construct: Full-length, active GST-PLK1 is purified from Sf9 insect cells; made in house; host or cells: Sf9 insect cells
Test: Biochemical Characterization Assay: HTRF kinase assay, GST-PLK1 phosphorylation of GST-p53
Details: GST-PLK1, GST-p53 substrate
Summary of the method: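 Full-length active GST-PLK1 (Sf9, 3 ug/mL) phosphorylated full-length GST-p53 (E. coli) in Kinase Assay Buffer for 35 min at 37 °C. Stopped with EDTA; phospho-p53 detected by HTRF with anti-phospho-p53, Eu-anti-rabbit and APC-anti-GST antibodies.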

T1 sequence (P53350 whole entry): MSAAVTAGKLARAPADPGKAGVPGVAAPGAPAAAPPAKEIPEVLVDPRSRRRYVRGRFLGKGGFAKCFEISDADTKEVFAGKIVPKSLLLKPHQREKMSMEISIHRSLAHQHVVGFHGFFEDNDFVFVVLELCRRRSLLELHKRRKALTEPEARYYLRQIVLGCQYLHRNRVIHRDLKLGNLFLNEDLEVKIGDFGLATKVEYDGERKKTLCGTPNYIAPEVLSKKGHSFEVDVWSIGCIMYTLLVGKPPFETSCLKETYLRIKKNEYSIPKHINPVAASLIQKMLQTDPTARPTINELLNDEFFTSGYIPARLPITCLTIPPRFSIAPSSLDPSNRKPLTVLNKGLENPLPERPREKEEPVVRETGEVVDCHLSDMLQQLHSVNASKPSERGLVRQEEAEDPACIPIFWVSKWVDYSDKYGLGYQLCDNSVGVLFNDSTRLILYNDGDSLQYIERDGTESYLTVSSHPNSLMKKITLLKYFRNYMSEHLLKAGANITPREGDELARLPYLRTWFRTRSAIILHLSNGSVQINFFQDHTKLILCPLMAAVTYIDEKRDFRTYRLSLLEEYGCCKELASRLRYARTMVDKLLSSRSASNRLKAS

| Structure (SMILES) | IC50 [nM] |
| --- | --- |
| COc1cc(C(=O)NC2CCN(C)CC2)ccc1Nc1ncc2c(n1)N(C1CCCC1)CC(Cl)(Cl)C(=O)N2C [Example I-298, 4-(7,7-dichloro-9-cyclopentyl-5-methyl-6-oxo-6,7,8,9-tetrahydro-5H-pyrimido[4,5-b][1,4]diazepin-2-ylamino)-3-methoxy-N-(1-methyl-piperidin-4-yl)-benzamide] | 1 to 50 |
| COc1cc(C(=O)N[C@H]2CC[C@@H](N3CCN(CC4CC4)CC3)CC2)ccc1Nc1ncc2c(n1)N(C(C)C)CC(F)(F)C(=O)N2C [Example I-301, N-[cis-4-(4-cyclopropylmethyl-piperazin-1-yl)-cyclohexyl]-4-(7,7-difluoro-9-isopropyl-5-methyl-6-oxo-6,7,8,9-tetrahydro-5H-pyrimido[4,5-b][1,4]diazepin-2-ylamino)-3-methoxy-benzamide] | 1 to 50 |
| COc1cc(C(=O)N[C@H]2CC[C@H](N3CCN(CC4CC4)CC3)CC2)ccc1Nc1ncc2c(n1)N(C(C)C)CC(F)(F)C(=O)N2C [Example I-302, N-[trans-4-(4-cyclopropylmethyl-piperazin-1-yl)-cyclohexyl]-4-(7,7-difluoro-9-isopropyl-5-methyl-6-oxo-6,7,8,9-tetrahydro-5H-pyrimido[4,5-b][1,4]diazepin-2-ylamino)-3-methoxy-benzamide] | 1 to 50 |
| COc1cc(C(=O)NC2CCN(C)CC2)ccc1Nc1ncc2c(n1)NCC(F)(F)C(=O)N2C [Example I-303, 4-(7,7-difluoro-5-methyl-6-oxo-6,7,8,9-tetrahydro-5H-pyrimido[4,5-b][1,4]diazepin-2-ylamino)-3-methoxy-N-(1-methyl-piperidin-4-yl)-benzamide] | 51 to 500 |
| COc1cc(C(=O)NC2CCN(C)CC2)ccc1Nc1ncc2c(n1)N(CCOc1ccccc1)CC(F)(F)C(=O)N2C [Example I-304, 4-[7,7-difluoro-5-methyl-6-oxo-9-(2-phenoxy-ethyl)-6,7,8,9-tetrahydro-5H-pyrimido[4,5-b][1,4]diazepin-2-ylamino]-3-methoxy-N-(1-methyl-piperidin-4-yl)-benzamide] | 51 to 500 |

Now from value to compound:

| IC50 [nM] | Structure (SMILES) |
| --- | --- |
| 1 to 50 | COc1cc(C(=O)NC2CCOCC2)ccc1Nc1ncc2c(n1)N(C(C)C)CC(F)(F)C(=O)N2C [Example I-297, 4-(7,7-difluoro-9-isopropyl-5-methyl-6-oxo-6,7,8,9-tetrahydro-5H-pyrimido[4,5-b][1,4]diazepin-2-ylamino)-3-methoxy-N-(tetrahydro-pyran-4-yl)-benzamide] |
| 1 to 50 | COc1cc(C(=O)N[C@H]2CC[C@@H](N3CCN(CC4CC4)CC3)CC2)ccc1Nc1ncc2c(n1)N(C1CCCC1)CC(F)(F)C(=O)N2C [Example I-299, 4-(9-cyclopentyl-7,7-difluoro-5-methyl-6-oxo-6,7,8,9-tetrahydro-5H-pyrimido[4,5-b][1,4]diazepin-2-ylamino)-N-[cis-4-(4-cyclopropylmethyl-piperazin-1-yl)-cyclohexyl]-3-methoxy-benzamide] |
| 1 to 50 | COc1cc(C(=O)N[C@H]2CC[C@H](N3CCN(CC4CC4)CC3)CC2)ccc1Nc1ncc2c(n1)N(C1CCCC1)CC(F)(F)C(=O)N2C [Example I-300, 4-(9-cyclopentyl-7,7-difluoro-5-methyl-6-oxo-6,7,8,9-tetrahydro-5H-pyrimido[4,5-b][1,4]diazepin-2-ylamino)-N-[trans-4-(4-cyclopropylmethyl-piperazin-1-yl)-cyclohexyl]-3-methoxy-benzamide] |
